From US4379156A, “Heterocyclic chemicals, their preparation and use” (Burroughs Wellcome Co., priority 1979, dated 1983)
Values joined by “and” are separate entries in the source; they are usually repeats but may differ in a detail not shown here. Identical values can stand only once. Like-named read-outs stand apart in the source and are kept apart here.

What was measured:
Schistosoma mansoni = assay: Schistosomicidal activity in infected mice (proportion of dead worms); type: in vivo; details: 12.5 mg/kg, dead worms relative to total worms recovered, autopsy 7 to 10 days after treatment; for % kill P.O.: oral; for % kill S.C.: subcutaneous
Method: Male mice weighing between 18 and 20 g were each infected percutaneously with 80 to 100 cercariae of Schistosoma mansoni. Groups of 5 or 10 mice with a 7 to 9 week infection of schistosomes were dosed orally (P.O.) or subcutaneously (S.C.) with 12.5 mg/kg of the compounds to be tested, and the animals were autopsied from 7 to 10 days after treatment. The number, sex and proportional distribution of schistosomes within the mesenteric, portal and intrahepatic veins were determined, and the final assessment of dose response was made on the proportion of dead worms found in relation to the total worms recovered in the treated group.

[1] = Toxicity in adult male mice (LD50); details: mouse, in vivo, observed up to 10 days
Method: Groups of adult male mice were given graded doses of the compound to be tested by stomach tube (P.O.) or subcutaneously (S.C.). The animals were kept under observation at frequent intervals up to 6 hours, then at 24 hours and daily for up to 10 days for overt changes in behaviour and for fatalities.

[2] = Toxicity in adult male mice (LD50); details: mouse, in vivo, iv, I.V.
[3] = po, by stomach tube, read-out: LD50 P.O.
[4] = sc, subcutaneous, read-out: LD50 S.C.

Compound | % kill P.O. (Schistosoma mansoni) | % kill S.C. (Schistosoma mansoni) | LD50 at 240 h [1, 3] [mg/kg] | LD50 at 240 h [1, 4] [mg/kg] | LD50 [2] [mg/kg]
NC(=O)Cn1cc([N+](=O)[O-])sc1=NC(=O)c1ccccc1 [*(2), 2-(benzoylimino)-5-nitro-4-thiazoline-3-acetamide, reference compound] | 8.5% | 0% | – | – | –
CC(=O)NC(=O)Cn1cc([N+](=O)[O-])sc1=NC(=O)c1cccc([N+](=O)[O-])c1 [Example 2, 2-[2-(3-Nitrobenzoylimino)-5-nitro-4-thiazolin-3-yl]diacetamide] | 100% | 100% | > 2000 | > 2000 | –
CC(=O)NC(=O)Cn1cc([N+](=O)[O-])sc1=NC(=O)c1ccccc1C [Example 1, 2-[2-(2-Methylbenzoylimino)-5-nitro-4-thiazolin-3-yl]diacetamide] | 80% | 100% | > 2000 | > 2000 | –
NC(=O)Cn1cc([N+](=O)[O-])sc1=NC(=O)c1cccc([N+](=O)[O-])c1 [Example 6, 2-[(3-Nitrobenzoyl)imino]-5-nitro-4-thiazoline-3-acetamide] | – | – | > 1000 | > 500 | –
2-[2-(2-Chlorobenzoylimino)-5-nitro-4-thiazolin-3-yl]diacetamide [Example 3] | 100% and 71% | 99% and 98% | – | – | –
CC(=O)NC(=O)Cn1cc([N+](=O)[O-])sc1=NC(=O)c1ccccc1 [*(1), 2-[2-(benzoylimino)-5-nitro-4-thiazolin-3yl]diacetamide, reference compound] | 58% | 53% | 953 | – | 192
Cc1ccccc1C(=O)N=c1sc([N+](=O)[O-])cn1CC(N)=O [Example 5, 2-[(2-Methylbenzoyl)imino]-5-nitro-4-thiazoline-3-acetamide] | – | – | > 2000 | > 1000 | –
CC(=O)NC(=O)Cn1cc([N+](=O)[O-])sc1=NC(=O)c1ccccc1[N+](=O)[O-] [Example 4, 2-[2-(2-Nitrobenzoylimino)-5-nitro-4-thiazolin-3-yl]diacetamide] | 74% | 98% | – | – | –
